Measured values published in PubChem BioAssay AID1645862 (Buhrlage Lab, Dana-Farber Cancer Institute and Novartis …, 2021).
Activity calls are given as the source filed them. How the calls were made is not given here. Bridge positions count the residues as written; N and C are the ends. Square brackets hold non-standard residues; d marks the D form. Peptide text beside a SMILES is read from it. * marks the point of attachment. ξ: configuration not given here. d(aIle) = CC[C@H](C)[C@@H](N)C(=O)O; d(aThr) = C[C@@H](O)[C@@H](N)C(=O)O; X1 = CCCCCCCCCCCC(O)CC(=O)*; ξL = CC(C)CC(N)C(=O)O

Target: Ubiquitin carboxyl-terminal hydrolase 8 (Homo sapiens) (UniProt P40818)
Assay: Ubiquitin-specific protease 8 inhibitors, concentration-effect, biochemical, validation of initial actives (AID 1645862);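 further: potency reflects inhibition of USP8 cleavage of a ubiquitin rhodamine substrate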
Conditions: recombinant USP8 deubiquitinase activity assay

Sequence of Ubiquitin carboxyl-terminal hydrolase 8 (Homo sapiens) (P40818 whole entry, looked up): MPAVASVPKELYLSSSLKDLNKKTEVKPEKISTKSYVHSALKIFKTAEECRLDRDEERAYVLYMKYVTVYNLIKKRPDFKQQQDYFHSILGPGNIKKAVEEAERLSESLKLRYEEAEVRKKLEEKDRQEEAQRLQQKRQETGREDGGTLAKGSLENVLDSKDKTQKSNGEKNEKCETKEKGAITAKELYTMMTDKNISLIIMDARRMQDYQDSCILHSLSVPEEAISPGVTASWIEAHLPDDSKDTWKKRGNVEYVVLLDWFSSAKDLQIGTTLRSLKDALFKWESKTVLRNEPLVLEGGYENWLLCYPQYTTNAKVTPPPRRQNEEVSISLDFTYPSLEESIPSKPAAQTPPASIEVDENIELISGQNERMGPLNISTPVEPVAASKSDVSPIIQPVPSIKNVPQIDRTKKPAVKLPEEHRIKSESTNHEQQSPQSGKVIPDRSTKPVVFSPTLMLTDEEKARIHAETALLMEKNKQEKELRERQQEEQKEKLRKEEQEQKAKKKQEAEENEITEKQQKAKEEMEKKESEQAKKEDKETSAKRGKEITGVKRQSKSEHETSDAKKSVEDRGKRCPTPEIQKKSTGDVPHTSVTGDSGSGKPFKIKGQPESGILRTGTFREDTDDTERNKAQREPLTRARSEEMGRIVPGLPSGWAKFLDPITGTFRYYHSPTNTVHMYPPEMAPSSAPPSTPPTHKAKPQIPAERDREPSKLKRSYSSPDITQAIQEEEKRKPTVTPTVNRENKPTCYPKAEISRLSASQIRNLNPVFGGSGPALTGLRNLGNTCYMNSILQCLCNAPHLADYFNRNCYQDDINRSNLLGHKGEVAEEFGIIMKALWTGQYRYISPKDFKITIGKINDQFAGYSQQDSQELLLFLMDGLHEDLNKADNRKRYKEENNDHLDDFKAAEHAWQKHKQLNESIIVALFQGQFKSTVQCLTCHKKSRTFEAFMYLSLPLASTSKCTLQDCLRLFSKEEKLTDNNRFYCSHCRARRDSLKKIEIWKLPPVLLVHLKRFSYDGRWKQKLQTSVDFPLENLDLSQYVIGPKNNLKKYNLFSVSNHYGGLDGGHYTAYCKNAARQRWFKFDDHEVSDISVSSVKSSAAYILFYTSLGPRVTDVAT

SMILES	IC50
CC(C)[C@H]1CC[C@@]2(CO2)[C@H]2C(=O)OCC(C(=O)O)=C[C@H]12	22.9 µM
COc1ccc(-c2nc(-c3cc4cc(OC)ccc4[nH]c3=O)no2)cc1	> 40 µM (inactive)
CCCn1c(=O)c2sccc2n2c(CCC(=O)N3CCc4ccccc4C3)nnc12	> 40 µM (inactive)
Cc1ccc2c(c1)c(=O)c(C(=O)c1ccccc1)cn2CC(=O)Nc1ccc2c(c1)OCO2	> 40 µM (inactive)
C[C@H](Cc1cc2c(cc1O)OCO2)[C@@H](C)Cc1cc2c(cc1O)OCO2	33.2 µM
Nc1c(-c2ccc(Cl)cc2)cnc2cc(-c3ccc(Cl)c(Cl)c3)nn12	> 40 µM (inactive)
Cc1ccc(C)c(NC(=O)Cn2cc(C(=O)C3CC3)c3ccccc32)c1	27.3 µM
COc1ccc(Cl)cc1NC(=O)c1cc(-c2ccccn2)n[nH]1	10.5 µM
Cc1noc(-c2cc(=O)n(CC(=O)Nc3ccccc3Cl)c3ccccc23)n1	> 40 µM (inactive)
COc1cc(NC(=O)c2ccc3c(c2)OCO3)ccc1-c1cc2ccccc2oc1=O	> 40 µM (inactive)
Cc1ccc(C(=O)O)cc1NC(=O)C(Sc1cccc(NC(=O)c2ccccc2C)c1)c1ccccc1 (stereo not drawn)	> 40 µM (inactive)
O=C1CC(c2ccccc2)n2ncnc2N1 (stereo not drawn)	> 40 µM (inactive)
O=C(CCSc1ccc(Cl)cc1)c1cccs1	> 40 µM (inactive)
COc1ccc(NC(=O)c2nnc(C(=O)NCCN3CCCCCC3)s2)cc1	> 40 µM (inactive)
COc1ccc(Cl)cc1NC(=O)Cn1c(=O)n(CCCCC(=O)NCCc2ccccc2)c(=O)c2ccccc21	> 40 µM (inactive)
Cc1ccc2[nH]c(=O)c(-c3nc4ccc(C)cn4c3NCc3ccc(F)cc3)cc2c1	> 40 µM (inactive)
Cc1cc(C)c(NC(=O)Cc2sc(Nc3ccc(C)c(C)c3)nc2O)c(C)c1	> 40 µM (inactive)
O=C(CC1C(=O)Nc2nc3ccccc3n21)Nc1cccc2ccccc12 (stereo not drawn)	> 40 µM (inactive)
COc1cccc(C2c3[nH]c4ccccc4c3C[C@@H]3C(=O)N(C4CC4)CC(=O)N23)c1 (stereo partly drawn)	> 40 µM (inactive)
Nc1ncnc2c1ncn2[C@@H]1O[C@H](CO)C[C@@H]1O	> 40 µM (inactive)
CC1CCc2c(sc(NC(=O)c3cccc(S(C)(=O)=O)c3)c2C(N)=O)C1 (stereo not drawn)	> 40 µM (inactive)
COc1ccccc1NC(=O)CSC1=NC2(CCCCC2)Nc2ccccc21	> 40 µM (inactive)

SMILES	IC50
Cc1ccccc1NC(=O)Nc1ccccc1OCc1cc(=O)n2cccc(C)c2n1	> 40 µM (inactive)
O=C(CSc1nc2cc(C(F)(F)F)ccc2s1)NCC(=O)c1ccccc1	> 40 µM (inactive)
CCc1nnc(C(=O)Nc2ccc(C(=O)NCc3ccc(OC(C)C)cc3)cc2)s1	> 40 µM (inactive)
NC(=O)c1nc(-c2cccnc2)nc2c1[nH]c(=O)n2-c1ccc2c(c1)OCO2	> 40 µM (inactive)
CCNS(=O)(=O)c1ccc(-c2ccc(-n3cnnn3)cc2)cc1	> 40 µM (inactive)
COc1ccc(-c2cc3c(=O)n(CC(=O)Nc4ccccc4C)ccn3n2)cc1	> 40 µM (inactive)
N#Cc1cccc(NC(=O)Nc2cccn(Cc3ccc(F)cc3)c2=O)c1	> 40 µM (inactive)
Cn1c(SCC(=O)c2ccc(F)cc2)nnc1-c1cc2ccccc2o1	> 40 µM (inactive)
COc1cccc2cc(-c3nnc(SCC(=O)c4ccc(F)cc4)n3C)oc12	> 40 µM (inactive)
O=C(/C=C/c1ccc2c(c1)OCO2)Nc1nc2n(n1)C(c1ccccc1)CC(=O)N2 (stereo not drawn)	> 40 µM (inactive)
O=C(NCCc1nc2ccccc2n1Cc1ccccc1F)c1ccc(Cl)cc1	> 40 µM (inactive)
O=C(CCn1c(=O)c2sccc2n(Cc2ccc([N+](=O)[O-])cc2)c1=O)NCc1ccccc1	> 40 µM (inactive)
Cc1cc(NS(=O)(=O)c2ccc(NC(=O)c3ccc(N4CCCC4)c([N+](=O)[O-])c3)cc2)no1	> 40 µM (inactive)
O=C(CCCC(=O)N(c1ccc2c(c1)OCCO2)C(C(=O)NC1CCCCC1)c1ccc(F)cc1)Nc1ccccn1 (stereo not drawn)	> 40 µM (inactive)
CCOc1ccc2cc3c(nc2c1)OC(=O)N(Cc1ccc(OC)cc1)C3	9.25 µM
COc1ccc(-c2noc([C@@H]3C[C@H](NC(=O)Nc4ccc(C)cc4)CN3C)n2)cc1	> 40 µM (inactive)
COc1ccc(-c2c(NC(=O)C3COc4ccccc4O3)n[nH]c2C)cc1OC (stereo not drawn)	31.3 µM
Cc1nc2cc(-c3noc(-c4cccc5[nH]ccc45)n3)ccc2o1	> 40 µM (inactive)
O=C(Cc1ccc(-n2c(=O)c3ccccc3n(Cc3cccc([N+](=O)[O-])c3)c2=O)cc1)NC1CCCC1	> 40 µM (inactive)
CCCCCCCCCCCC(O)CC(=O)N[C@@H](CC(C)C)C(=O)N[C@H](CCC(=O)O)C(=O)N[C@H]1C(=O)N[C@H]([C@@H](C)CC)C(=O)NC(CC(C)C)C(=O)N[C@H](CO)C(=O)N[C@@H](CC(C)C)C(=O)N[C@@H](CC(C)C)C(=O)N[C@H](CO)C(=O)N[C@@H](C(C)C)C(=O)O[C@@H]1C (stereo partly drawn) (X1-L[dE][d(aThr)][d(aIle)][ξL][dS]LL[dS]V; ester 3-C)	> 40 µM (inactive)
Cn1c2ccccc2c(=O)c2c(=O)n(-c3cccc(Cl)c3)c(-c3cccs3)nc21	4.52 µM
Cc1cc(O)c2c3c(c(O)cc2c1)C(=O)c1c(O)cccc1C3=O	1.46 µM

SMILES	IC50
CC1=CC(=O)C(C2=C(O)C(=O)C(C)=CC2=O)=C(O)C1=O	9.22 µM
O=C(Cc1ccc(-n2c(=O)c3ccccc3n(CC(=O)Nc3ccc(Cl)cc3Cl)c2=O)cc1)NCc1ccco1	> 40 µM (inactive)
Cc1nc(SCC(=O)NC(C)c2ccccc2)c2oc3ccccc3c2n1 (stereo not drawn)	> 40 µM (inactive)
Cc1ccc(Cn2c(C(=O)O)c(CNCc3ccco3)c3ccccc32)cc1	> 40 µM (inactive)
CCOc1ccc(Oc2nc(CN3CCCC3)nc3sc(C)c(C)c23)cc1	> 40 µM (inactive)
O=S(=O)(Nc1cccc(O)c1)c1ccc2oc3ccc(S(=O)(=O)Nc4cccc(O)c4)cc3c2c1	> 40 µM (inactive)
O=C(Nc1cc(F)c2nc(N3CCOCC3)ccc2c1)C1CC1	33.6 µM
O=C(CCCc1nnc2c(=O)n(-c3cccc(F)c3)ccn12)Nc1ccccc1	> 40 µM (inactive)
Cc1nc(C(=O)NC2(O)C(=O)c3ccccc3C2=O)cs1	4.23 µM
O=C(Nc1nnc(-c2cccc([N+](=O)[O-])c2)o1)C1CCN(S(=O)(=O)c2ccc3c(c2)CCC3)CC1	> 40 µM (inactive)
CCc1[nH]c(=O)cc2cc(OC)c(OC)cc12	0.722 µM
COc1ccccc1CNC(=O)CCCCn1c(=O)c2ccccc2n(CC(=O)Nc2ccc(C)cc2C)c1=O	> 40 µM (inactive)
O=C(Cn1c(=O)[nH]c2ccccc2c1=O)NCc1ccccc1Cl	> 40 µM (inactive)
COC(=O)c1cc2c(ccn2-c2ccc(F)cc2)n1CC(=O)NC1CCCCC1	> 40 µM (inactive)
O=C(CNC(=O)c1ccc2nc(-n3cccc3)sc2c1)NCc1cccc(Cl)c1	> 40 µM (inactive)
CCCCCCC1CCC(O)CC(O)CC(O)CC(O)CC(O)CC(O)/C(C)=C/C=C\C=C/C=C/C=C/[C@H](O)[C@@H](C)OC1=O (stereo partly drawn)	> 40 µM (inactive)
Cc1nnc(NC(=O)C2CC(=O)N(CCc3ccc(F)cc3)C2)s1 (stereo not drawn)	> 40 µM (inactive)
N=C1/C(=C/c2cn(Cc3ccccc3)c3ccccc23)C(=O)N=C2SC(C(F)(F)F)=NN12	> 40 µM (inactive)
O=C(c1ccccc1CN1CCOCC1)N1CCOCC2(C1)CN(c1ccc(F)cc1)C(=O)O2 (stereo not drawn)	> 40 µM (inactive)
Cc1ccc(-n2nc(C)c3c2NC(=O)CC3C(=O)c2cc3ccccc3o2)cc1C (stereo not drawn)	> 40 µM (inactive)
O=C1c2ccccc2-c2nnc(-c3ccncc3)cc21	14 µM
CCCCN1CC(C(=O)Nc2ccc(C(=O)Nc3ccc(C(N)=O)cc3)cc2)CC1=O (stereo not drawn)	> 40 µM (inactive)

SMILES	IC50
Cc1ccc(Nc2nc3c(S(=O)(=O)c4ccccc4)nnn3c3ccccc23)c(C)c1	> 40 µM (inactive)
COc1ccc(CCN2COc3c(cc(Cl)c4cccnc34)C2)cc1OC	> 40 µM (inactive)
Cc1ccc(NC(=O)Cc2nnc3c(-c4nc(C5CC5)no4)cccn23)c(C)c1	> 40 µM (inactive)
Cc1ccccc1-c1noc(-c2cn(Cc3ccc(NC(=O)Cc4ccccc4)cc3)cn2)n1	> 40 µM (inactive)
O=C(NCc1ccc(Br)cc1)c1cc(-c2cccnc2)n[nH]1	> 40 µM (inactive)
COc1ccc(NC2c3ccccc3C(=O)N2c2ccccn2)cc1 (stereo not drawn)	> 40 µM (inactive)
COc1ccc(CCNC(=O)Cn2c(=O)n(-c3ccc(CC(=O)NCCc4ccccc4)cc3)c(=O)c3ccccc32)cc1OC	> 40 µM (inactive)
CCOC(=O)c1cc2c(ccn2C)n1CC(=O)NC1CC1	> 40 µM (inactive)
CC(C)c1ccc(NC(=O)c2cc(-c3cccnc3)n[nH]2)cc1	28.6 µM
Cc1ccc(-c2nc(NC(=O)COc3ccc(Cl)cc3)no2)cc1	9.1 µM
Cc1ccc(-n2cc(C(=O)NCCCc3ccccc3)nn2)cc1	> 40 µM (inactive)
O=C(Cn1nc(-c2ccccc2)cc(NC(=O)c2ccccc2)c1=O)Nc1ccc(F)cc1	> 40 µM (inactive)
COC(=O)c1ccc(NC(=O)/C=C/c2ccc(F)cc2)cc1	> 40 µM (inactive)
O=C(COc1ccccc1)Nc1ccc(-c2nc3cnccc3o2)c(O)c1	> 40 µM (inactive)
CNc1nc2c(c(=O)n1C)CN(C(=O)Nc1cccc3ccccc13)CC2	> 40 µM (inactive)
Cn1cc(NC(=O)Nc2cccc(C(F)(F)F)c2)c2ccccc2c1=O	9.33 µM
Cc1c(OCC(=O)NCc2ccccc2Cl)ccc2c3c(c(=O)oc12)CCC3	> 40 µM (inactive)
COc1cc2c(c(OCC(=O)Nc3ccc4c(c3)OCCO4)c1)C(=O)O[C@@H](C)CCCC(=O)CCCCC2	> 40 µM (inactive)
COc1cc(C)cc2c1C(=O)c1c(cc(O)c(Cl)c1O)C2=O	3.33 µM
Cc1nc(-c2ccc(C(=O)Nc3ccc(F)cc3)cc2)cs1	> 40 µM (inactive)
Cc1nc(-c2ccc(Cl)cc2)oc1C(=O)Nc1ccc(Cl)cc1	> 40 µM (inactive)
COc1ccc2[nH]c(=O)c(CN(C)C(=O)c3ccc([N+](=O)[O-])cc3)cc2c1	> 40 µM (inactive)
